Key:
[1] = molecular target: cloned human P2Y1 receptors (Homo sapiens (Human), UniProt P47900); assay: Binding Assay B - Scintillation Proximity Assay (SPA) for P2Y1 binding, [33P] 2MeS-ADP; conditions: SPA, 0.3 nM [33P] 2MeS-ADP, Cheng-Prusoff; read-out: P2Y1 Ki (nM) using binding assay B
Procedure: Binding Assay B—Scintillation Proximity Assay (SPA) for P2Y1 Binding
A SPA membrane binding assay was used to identify inhibitors of [^33P] […] Reactions were allowed to proceed to completion at room temperature for 1 hour followed by centrifugation of the plate for 5 min. About 40 μL of the aqueous solution was aspirated. Plates were sealed and the [^33P]

[2] = test system: human platelet rich plasma (PRP); assay: ADP induced platelet aggregation assay; conditions: Homo sapiens, Platelet, 5 min, read-out: PA IC50 (μM) @ 10 μM ADP, human PRP, 10 μM ADP, AUC at 5 minute
Procedure: The ability of P2Y1 antagonists covered in the present invention to inhibit platelet aggregation induced by 10 μM ADP was tested using human platelet rich plasma (PRP) as described in Platelet Protocols: Research and Clinical Laboratory Procedures (White, M. M. et al., Academic Press (1999)). Human blood was collected in 30 μM (final concentration in blood) argatroban (GSK) as the anticoagulant at a ratio of 1 mL per 9 mL of blood. The PRP was isolated by centrifugation at 170 g for 12 minutes. The platelet poor plasma (PPP) was used as the blank for optical aggregometry. Compounds of the present invention in DMSO solution was preincubated with 250 μL PRP at 37° C. for 1 minute with stirring speed of 1000 rpm. Aggregation was initiated by addition of 2.5 μL of 1 mM ADP (Chrono-log, Havertown, Pa.) for a final ADP concentration of 10 μM. Platelet aggregation was monitored using Optical Aggregometer (Chrono-log, Havertown, Pa.) and the area under the curve (AUC) at 5 minute was measured. IC50 was calculated using vehicle control as 0% inhibition.

Sequence of cloned human P2Y1 receptors (P47900 whole entry): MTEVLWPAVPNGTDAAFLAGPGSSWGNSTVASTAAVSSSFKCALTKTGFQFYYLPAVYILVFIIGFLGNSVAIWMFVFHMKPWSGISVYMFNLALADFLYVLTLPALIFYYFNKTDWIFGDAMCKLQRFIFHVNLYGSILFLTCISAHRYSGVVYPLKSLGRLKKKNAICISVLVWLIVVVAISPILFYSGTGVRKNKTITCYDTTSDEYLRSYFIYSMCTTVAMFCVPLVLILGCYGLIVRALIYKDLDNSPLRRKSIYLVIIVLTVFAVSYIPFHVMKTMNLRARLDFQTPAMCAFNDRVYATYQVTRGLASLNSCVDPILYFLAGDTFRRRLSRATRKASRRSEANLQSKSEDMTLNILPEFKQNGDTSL

Row | Compound | Ki [1] [nM] | IC50 [2] [µM]
1 | CCC1(CC)CN(c2ccccc2NC(=O)Nc2ccc(C3CCCN3CC(C)(C)C)cc2)c2c(O)ccc(F)c21 (stereo not shown) [Example 29, 1-(2-(3,3-Diethyl-4-fluoro-7-hydroxyindolin-1-yl)phenyl)-3-(4-(1-neopentylpyrrolidin-2-yl)phenyl)urea] | 3.6 | 0.3
2 | CC1(C)CN(c2ccccc2NC(=O)Nc2ccc(OC(F)(F)F)cc2)c2c(O)c(F)cc(-c3ccc(F)cc3)c21 [Example 232, 1-(2-(6-Fluoro-4-(4-fluorophenyl)-7-hydroxy-3,3-dimethylindolin-1-yl)phenyl)-3-(4-(trifluoromethoxy)phenyl)urea] | 14.7 | 0.39
3 | CC1(C)CN(c2ccccc2NC(=O)Nc2ccc(OC(F)(F)F)cc2)c2c(O)cc(F)c(-c3ccc(C#N)cc3)c21 [Example 248, 1-(2-(4-(4-Cyanophenyl)-5-fluoro-7-hydroxy-3,3-dimethylindolin-1-yl)phenyl)-3-(4-(trifluoromethoxy)phenyl)urea] | 7.4 | 0.43
4 | CC1(C)CN(c2ccccc2NC(=O)Nc2ccc(OC(F)(F)F)cc2)c2c(O)c(F)cc(CC(F)(F)F)c21 [Example 79, 1-(2-(6-Fluoro-7-hydroxy-3,3-dimethyl-4-(2,2,2-trifluoroethyl)indolin-1-yl)phenyl)-3-(4-(trifluoromethoxy)phenyl)urea] | 9.7 | 0.83
5 | CC1(C)CN(c2ccccc2NC(=O)Nc2ccc(OC(F)(F)F)cc2)c2c(O)ccc(-c3cccc(F)c3)c21 [Example 206, 1-(2-(4-(3-Fluorophenyl)-7-hydroxy-3,3-dimethylindolin-1-yl)phenyl)-3-(4-(trifluoromethoxy)phenyl)urea] | 8.5 | 0.24
6 | CC(C)(C)c1ccc(-c2c(F)cc(O)c3c2C(C)(C)CN3c2ccccc2NC(=O)Nc2ccc(OC(F)(F)F)cc2)cn1 [Example 165, 1-(2-(4-(6-(tert-Butyl)pyridin-3-yl)-5-fluoro-7-hydroxy-3,3-dimethylindolin-1-yl)phenyl)-3-(4-(trifluoromethoxy)phenyl)urea] | 26.8 | 0.21
7 | CCC1(CC)CN(c2ccccc2NC(=O)Nc2ccc(OC(F)(F)F)cc2)c2c(O)ccc(C=O)c21 [Example 73, 1-(2-(3,3-Diethyl-4-formyl-7-hydroxyindolin-1-yl)phenyl)-3-(4-(trifluoromethoxy)phenyl)urea] | 4.5 | 0.9
8 | CC1(C)CN(c2ccccc2NC(=O)Nc2ccc(OC(F)(F)F)cc2)c2c(O)ccc(-c3nc4cnccc4o3)c21 [Example 96, 1-(2-(7-Hydroxy-3,3-dimethyl-4-(oxazolo[4,5-c]pyridin-2-yl)indolin-1-yl)phenyl)-3-(4-(trifluoromethoxy)phenyl)urea] | 22.2 | 2.99
9 | CC1(C)CN(c2ccccc2NC(=O)Nc2csc(C(F)(F)F)n2)c2c(O)cc(F)c(-c3nc4cc(Cl)ccc4s3)c21 [Example 180, 1-(2-(4-(5-Chlorobenzo[d]thiazol-2-yl)-5-fluoro-7-hydroxy-3,3-dimethylindolin-1-yl)phenyl)-3-(2-(trifluoromethyl)thiazol-4-yl)urea] | 28.4 | 0.56
10 | CC1(C)CN(c2ccccc2NC(=O)Nc2ccc(OC(F)(F)F)cc2)c2c(O)c(F)cc(-c3ccc(Cl)cc3)c21 [Example 231, 1-(2-(4-(4-Chlorophenyl)-6-fluoro-7-hydroxy-3,3-dimethylindolin-1-yl)phenyl)-3-(4-(trifluoromethoxy)phenyl)urea] | 15.2 | 0.3
11 | CC(C)CN1CCC(c2ccc(NC(=O)Nc3ccccc3N3CC(C)(C)c4c(-c5ccc(Cl)cc5)c(F)cc(O)c43)cc2)CC1 [Example 238, 1-(2-(4-(4-Chlorophenyl)-5-fluoro-7-hydroxy-3,3-dimethylindolin-1-yl)phenyl)-3-(4-(1-isobutylpiperidin-4-yl)phenyl)urea] | 16.3 | 0.4
12 | CC1(C)CN(c2ccccc2NC(=O)Nc2ccc(OC(F)(F)F)cc2)c2c(O)cc(F)c(-c3ccc(F)nc3)c21 [Example 188, 1-(2-(5-Fluoro-4-(6-fluoropyridin-3-yl)-7-hydroxy-3,3-dimethylindolin-1-yl)phenyl)-3-(4-(trifluoromethoxy)phenyl)urea] | 4.7 | 0.38
13 | CC1(C)CN(c2ccccc2NC(=O)Nc2ccc(OC(F)(F)F)cc2)c2c(O)ccc(-c3nc4c(CO)cccc4o3)c21 [Example 106, 1-(2-(7-Hydroxy-4-(4-(hydroxymethyl)benzo[d]oxazol-2-yl)-3,3-dimethylindolin-1-yl)phenyl)-3-(4-(trifluoromethoxy)phenyl) urea] | 364 | 3.28
14 | CC1(C)CN(c2ccccc2NC(=O)Nc2ccc(OC(F)(F)F)cc2)c2c(O)ccc(-c3ncc(F)cn3)c21 [Example 133, 1-(2-(4-(5-Fluoropyrimidin-2-yl)-7-hydroxy-3,3-dimethylindolin-1-yl)phenyl)-3-(4-(trifluoromethoxy)phenyl)urea] | 10.2 | 0.69
15 | Cc1cc(-c2ccc(O)c3c2C(C)(C)CN3c2ccccc2NC(=O)Nc2ccc(OC(F)(F)F)cc2)cnc1F [Example 119, 1-(2-(4-(6-Fluoro-5-methylpyridin-3-yl)-7-hydroxy-3,3-dimethylindolin-1-yl)phenyl)-3-(4-(trifluoromethoxy)phenyl) urea] | 3.3 | 0.47
16 | CC(C)n1nc(-c2c(F)cc(O)c3c2C(C)(C)CN3c2ccccc2NC(=O)Nc2csc(C(F)(F)F)n2)cc1C(F)(F)F [Example 272, 1-(2-(5-Fluoro-7-hydroxy-4-(1-isopropyl-5-(trifluoromethyl)-1H-pyrazol-3-yl)-3,3-dimethylindolin-1-yl)phenyl)-3-(2-(trifluoromethyl)thiazol-4-yl)urea] | 16.7 | 0.18
17 | CC1(C)CN(c2ccccc2NC(=O)Nc2nc3ccc(F)nc3s2)c2c(O)cc(F)c(-c3nc4cc(F)ccc4s3)c21 [Example 182, 1-(2-(5-Fluoro-4-(5-fluorobenzo[d]thiazol-2-yl)-7-hydroxy-3,3-dimethylindolin-1-yl)phenyl)-3-(5-fluorothiazolo[5,4-b]pyridin-2-yl)urea] | 15.7 | 0.51
18 | CC(C)(C)CN1CCC(c2ccc(NC(=O)Nc3ccccc3N3CC(C)(C)c4c(-c5ccc(Cl)cc5)c(F)cc(O)c43)cc2)CC1 [Example 240, 1-(2-(4-(4-Chlorophenyl)-5-fluoro-7-hydroxy-3,3-dimethylindolin-1-yl)phenyl)-3-(4-(1-neopentylpiperidin-4-yl)phenyl)urea] | 13.7 | 0.31
19 | CCC1(CC)CN(c2ccccc2NC(=O)Nc2nc3ccc(Cl)cc3s2)c2c(O)cccc21 [Example 9, 1-(6-Chlorobenzo[d]thiazol-2-yl)-3-(2-(3,3-diethyl-7-hydroxyindolin-1-yl)phenyl)urea] | 14.2 | 0.39
20 | Cc1nn(C)c(C)c1-c1c(F)cc(O)c2c1C(C)(C)CN2c1ccccc1NC(=O)Nc1ccc(OC(F)(F)F)cc1 [Example 187, 1-(2-(5-Fluoro-7-hydroxy-3,3-dimethyl-4-(1,3,5-trimethyl-1H-pyrazol-4-yl)indolin-1-yl)phenyl)-3-(4-(trifluoromethoxy)phenyl)urea] | 19.2 | 1.07

From patent publication US9540323B2 (BRISTOL-MYERS SQUIBB COMPANY, priority 2012, dated 2017)
